Experimental data: PMC10741476, “The Allosteric Regulation of Β-Ureidopropionase Depends on Fine-Tuned Stability of Active-Site Loops and Subunit Interfaces” (Biomolecules, 2023)
Like-named read-outs stand apart in the source and are kept apart here. Residues, ends and D or L forms follow the SMILES beside them.

B1: human β-ureidopropionase (HsβUP) (Homo sapiens) (protein)
chain: MAGAEWKSLEECLEKHLPLPDLQEVKRVLYGKELRKLDLPREAFEAASREDFELQGYAFEAAEEQLRRPRIVHVGLVQNRIPLPANAPVAEQVSALHRRIKAIVEVAAMCGVNIICFQEAWTMPFAFCTREKLPWTEFAESAEDGPTTRFCQKLAKNHDMVVVSPILERDSEHGDVLWNTAVVISNSGAVLGKTRKNHIPRVGDFNESTYYMEGNLGHPVFQTQFGRIAVNICYGRHHPLNWLMYSINGAEIIFNPSATIGALSESLWPIEARNAAIANHCFTCAINRVGTEHFPNEFTSGDGKKAHQDFGYFYGSSYVAAPDSSRTPGLSRSRDGLLVAKLDLNLCQQVNDVWNFKMTGRYEMYARELAEAVKSNYSPTIVKE

Columns and labels:
[1] = molecular target: T1, human β-ureidopropionase (HsβUP) (Homo sapiens, UniProt Q9UBR1); assay: discontinuous OPA fluorescence assay of beta-alanine formation from NCβA; assay type: biochemical
T1 construct: gene UPB1
T1 sequence (Q9UBR1 1-384): B1 chain
Source text: discontinuous OPA fluorescence assay of beta-alanine formation from NCβA on human β-ureidopropionase (HsβUP)

[2] = substrate: NC(=O)NCCC(=O)O; assay: as above; assay type: biochemical, Homo sapiens; settings: pH 6.5, 37 °C, 100 mM MES, 50 mM NaCl

Molecule	Ki [1] [µM]	further results
CC(C)(N)C(=O)O [2-aminoisobutyric acid]	151	
CC(C)C(=O)O [isobutyric acid]	2270	
NCC(=O)NCC(=O)O [glycyl-glycine] (H-Gly-Gly-OH)		Ki ([1]; pH 6.5, 37 °C, 100 mM MES, 50 mM NaCl, competitive mode assumed (data best fitted as non-competitive), substrate NCβA): 237 µM
B1		Km [2]: 101.4 µM
